Experimental data published in paper PMC3525754 (Biochemistry, 2012).
Blank lines part the entries; values can stand above or below the compound they belong to.

Columns and labels:
[1] = target: T1, DrPRODH (proline dehydrogenase from Deinococcus radiodurans R1) (Deinococcus radiodurans, UniProt Q9RW55); test: X-ray crystal structure, […] Å; format: binding; settings: crystal reduced by soaking in 50 mM sodium dithionite
[2] = target: T1, DrPRODH (proline dehydrogenase from Deinococcus radiodurans R1); test: steady-state CoQ1 reduction, absorbance […] nm; format: biochemical
[3] = target: T1, DrPRODH (proline dehydrogenase from Deinococcus radiodurans R1); test: X-ray crystal structure, […] Å; format: binding; settings: oxidized enzyme complexed with THFA; two ribityl conformations

T1 sequence (Q9RW55 whole entry): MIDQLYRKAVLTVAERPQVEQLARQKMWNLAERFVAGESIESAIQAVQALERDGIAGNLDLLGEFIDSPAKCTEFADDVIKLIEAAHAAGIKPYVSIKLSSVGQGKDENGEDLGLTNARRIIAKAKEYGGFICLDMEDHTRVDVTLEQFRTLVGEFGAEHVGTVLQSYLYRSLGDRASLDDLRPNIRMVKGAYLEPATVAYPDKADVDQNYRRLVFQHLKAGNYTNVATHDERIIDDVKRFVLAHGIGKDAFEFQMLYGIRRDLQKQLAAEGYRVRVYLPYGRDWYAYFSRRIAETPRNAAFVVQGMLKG

Structure (SMILES): Cc1cc2c(cc1C)N(C[C@H](O)[C@H](O)[C@H](O)COP(=O)(O)OP(=O)(O)OC[C@H]1O[C@@H](n3cnc4c(N)ncnc43)[C@H](O)[C@@H]1O)c1[nH]c(=O)[nH]c(=O)c1N2 [reduced FAD]
X-ray crystal structure, 1.75 Å [1]: The reduced flavin of DrPRODHr exhibits just one ribityl conformation

Ki [2]: 38 mM
Structure (SMILES): O=C(O)[C@@H]1CCCO1 [THFA]

Structure (SMILES): Cc1cc2nc3c(=O)[nH]c(=O)nc-3n(C[C@H](O)[C@H](O)[C@H](O)COP(=O)(O)OP(=O)(O)OC[C@H]3O[C@@H](n4cnc5c(N)ncnc54)[C@H](O)[C@@H]3O)c2cc1C [FAD]
X-ray crystal structure, 1.36 Å [3]: The oxidized flavin exhibits two conformations
